Columns and labels:
MMP9 [1] = molecular target: T1, MMP9 (Homo sapiens, UniProt P14780); conditions: literature; cited from earlier work
Target sequence in this assay (P14780 94-707, species assumed): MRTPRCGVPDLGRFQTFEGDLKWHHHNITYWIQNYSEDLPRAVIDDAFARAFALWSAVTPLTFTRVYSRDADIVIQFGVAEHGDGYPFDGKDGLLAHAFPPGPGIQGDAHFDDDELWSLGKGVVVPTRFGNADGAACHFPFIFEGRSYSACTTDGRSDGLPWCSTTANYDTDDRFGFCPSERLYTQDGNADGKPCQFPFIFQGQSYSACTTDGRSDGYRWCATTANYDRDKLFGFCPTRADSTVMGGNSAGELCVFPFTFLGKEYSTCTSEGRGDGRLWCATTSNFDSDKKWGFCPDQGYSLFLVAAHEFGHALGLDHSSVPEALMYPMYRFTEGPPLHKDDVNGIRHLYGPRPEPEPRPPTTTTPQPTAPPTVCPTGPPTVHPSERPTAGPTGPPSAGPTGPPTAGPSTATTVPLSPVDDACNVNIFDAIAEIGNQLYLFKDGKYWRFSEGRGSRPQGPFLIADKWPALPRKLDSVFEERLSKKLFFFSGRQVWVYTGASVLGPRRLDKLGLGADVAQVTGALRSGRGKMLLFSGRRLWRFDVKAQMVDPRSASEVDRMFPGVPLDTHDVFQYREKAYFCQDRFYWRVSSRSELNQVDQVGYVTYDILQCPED

MMP2 [2] = molecular target: T2, MMP2 (Homo sapiens, UniProt P08253); conditions: literature; cited from earlier work
T2 sequence (P08253 110-660): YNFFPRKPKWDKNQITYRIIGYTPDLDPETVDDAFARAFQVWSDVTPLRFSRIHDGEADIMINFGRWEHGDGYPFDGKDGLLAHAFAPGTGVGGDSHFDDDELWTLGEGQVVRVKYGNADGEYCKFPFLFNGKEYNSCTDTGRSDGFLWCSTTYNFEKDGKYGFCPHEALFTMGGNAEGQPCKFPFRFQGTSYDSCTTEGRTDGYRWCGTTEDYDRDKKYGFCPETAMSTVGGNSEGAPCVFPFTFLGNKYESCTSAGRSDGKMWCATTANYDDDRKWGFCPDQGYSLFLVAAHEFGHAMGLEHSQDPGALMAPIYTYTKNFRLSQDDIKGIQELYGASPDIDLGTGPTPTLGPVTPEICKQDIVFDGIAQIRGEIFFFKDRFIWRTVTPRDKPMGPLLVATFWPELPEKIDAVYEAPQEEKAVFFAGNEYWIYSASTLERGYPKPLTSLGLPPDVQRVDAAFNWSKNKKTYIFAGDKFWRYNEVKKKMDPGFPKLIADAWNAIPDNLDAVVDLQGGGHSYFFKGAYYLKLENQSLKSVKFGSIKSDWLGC

MMP7 [3] = molecular target: T3, MMP7 (Homo sapiens, UniProt P09237); assay: Competitive-MAMBI: loss of HxBP-Bt probe labeling with competitive inhibitor; type: binding; parameters: The recombinant catalytic domains of human MMPs 7 and 9 were purchased from Enzo Life Sciences, and of MMP 12 from Anaspec; purchased Enzo Life Sciences; conditions: recombinant and effluent derived samples, inhibitor 0.17-7.5 μM, HxBP-Bt 0.5 μM
T3 sequence (P09237 95-267): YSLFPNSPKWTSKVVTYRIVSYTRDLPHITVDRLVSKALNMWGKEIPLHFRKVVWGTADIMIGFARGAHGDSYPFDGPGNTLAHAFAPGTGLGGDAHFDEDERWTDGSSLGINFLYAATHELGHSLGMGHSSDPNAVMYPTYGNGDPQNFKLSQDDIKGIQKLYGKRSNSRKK
Procedure: (§1) The MAMBI platform was utilized for characterization of inhibitors, in which the HxBP-Bt probe binding to active metalloproteinase was assayed in the presence of small molecule metalloproteases inhibitors. The relative inhibitor potencies were quantified by the loss of labeling by activity-based probe of a target protease with the addition of a competitive inhibitor. Selectivity was additionally estimated by monitoring relative potencies across an enzyme superfamily.
(§2) The relative inhibition by 10 commercially available inhibitors was characterized in a mixture of six recombinant MMPs, as well as in menstrual serum effluent.
(§3) Protease labeling was reported as a fraction of MAMBI signal without competitive inhibition.

MMP7 [4] = molecular target: T3, MMP7; conditions: literature; cited from earlier work
MMP1 = molecular target: T4, MMP1 (Homo sapiens, UniProt P03956); assay: Competitive-MAMBI: loss of HxBP-Bt probe labeling with competitive inhibitor; type: binding; parameters: purchased Peprotech; conditions: recombinant and effluent derived samples, inhibitor 0.17-7.5 μM, HxBP-Bt 0.5 μM
T4 sequence (P03956 100-469): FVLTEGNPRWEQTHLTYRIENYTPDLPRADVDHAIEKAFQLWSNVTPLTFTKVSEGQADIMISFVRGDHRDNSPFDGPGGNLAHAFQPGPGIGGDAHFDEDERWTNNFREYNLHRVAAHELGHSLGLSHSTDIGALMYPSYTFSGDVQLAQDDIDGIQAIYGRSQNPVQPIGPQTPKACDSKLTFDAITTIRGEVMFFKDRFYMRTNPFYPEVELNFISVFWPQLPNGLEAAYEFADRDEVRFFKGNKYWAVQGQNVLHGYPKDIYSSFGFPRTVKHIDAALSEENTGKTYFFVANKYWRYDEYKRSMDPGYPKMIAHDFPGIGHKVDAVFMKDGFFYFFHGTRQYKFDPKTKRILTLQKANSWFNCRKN

MMP3 [5] = molecular target: T5, MMP3 (Homo sapiens, UniProt P08254); assay: as above; type: binding; parameters: purchased Peprotech; conditions: recombinant and menstrual effluent, inhibitor 0.17-7.5 μM, HxBP-Bt 0.5 μM
Procedure: as §1, §2, §3
Target sequence in this assay (P08254 100-477): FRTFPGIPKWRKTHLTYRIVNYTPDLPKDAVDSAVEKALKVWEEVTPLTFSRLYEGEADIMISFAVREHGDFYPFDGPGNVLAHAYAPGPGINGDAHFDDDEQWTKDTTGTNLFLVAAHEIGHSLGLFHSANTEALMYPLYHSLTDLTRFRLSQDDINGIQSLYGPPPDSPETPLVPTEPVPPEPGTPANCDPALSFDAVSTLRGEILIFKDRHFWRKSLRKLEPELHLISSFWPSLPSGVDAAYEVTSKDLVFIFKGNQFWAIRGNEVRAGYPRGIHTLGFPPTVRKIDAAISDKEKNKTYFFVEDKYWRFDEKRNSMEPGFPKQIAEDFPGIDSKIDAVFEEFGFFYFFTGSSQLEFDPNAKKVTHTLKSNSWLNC

[6] = tested on: panel of MMPs (MMP1, MMP2, MMP3, MMP7, MMP9, MMP12); assay: as above; type: binding, human; conditions: recombinant MMPs and menstrual effluent; inhibitor 0.17-7.5 μM, HxBP-Bt 0.5 μM
active recombinant MMPs = conditions: single recombinant MMPs, 500 nM HxBP-Bt
Procedure: A single active recombinant MMP (5 nM by mass, 5 μL total vol) was incubated with HxBP-Bt (30 min at 37° C., 500 nM final HxBP-Bt concentration) under reversible binding conditions. Tested MMPs included MMP1, MMP2, MMP3, MMP7, MMP8, MMP9, MMP10, MMP12, and MMP13. Each containing biotin-labeled MMP (MMP reversibly bound to HxBP-Bt) was then incubated with a cocktail of MMP capture beads (60 minutes, RT, 25 μL total vol).
A cocktail of MMP capture beads diluted in Microparticle Diluent 3 (R&D systems; PN 895857) (17.5 μL bead suspension) was added to the HxBP-Bt-labeled sample (7.5 μL) in a 384-well plate (60 minutes, with rotary agitation, room temperature). Samples were washed 3 times with PBS 0.1% TWEEN®-20 (300 μl each wash) using the Magnetic BioTek plate washer (405 Select TS), incubated with Streptavidin-R-Phycoerythrin (10 μg/mL) diluted in diluted wash buffer concentrate (R&D systems; PN 895003) (15 minutes, with rotary agitation, room temperature), and again washed 3 times by plate washer. Samples were immediately characterized using the FLEXMAP 3D system (Luminex).

MMP2 [7] = molecular target: T2, MMP2; assay: Competitive-MAMBI: loss of HxBP-Bt probe labeling with competitive inhibitor; type: binding; parameters: purchased Peprotech; conditions: inhibitor 0.17-7.5 μM, HxBP-Bt 0.5 μM
MMP9 [8] = molecular target: T1, MMP9; assay: as above; type: binding; parameters: The recombinant catalytic domains of human MMPs 7 and 9 were purchased from Enzo Life Sciences, and of MMP 12 from Anaspec; purchased Enzo Life Sciences; conditions: MMP9 (gelatinase); inhibitor 0.17-7.5 μM, HxBP-Bt 0.5 μM
Procedure: as §1, §2, §3
Target sequence in this assay (P14780 107-449 limits assumed): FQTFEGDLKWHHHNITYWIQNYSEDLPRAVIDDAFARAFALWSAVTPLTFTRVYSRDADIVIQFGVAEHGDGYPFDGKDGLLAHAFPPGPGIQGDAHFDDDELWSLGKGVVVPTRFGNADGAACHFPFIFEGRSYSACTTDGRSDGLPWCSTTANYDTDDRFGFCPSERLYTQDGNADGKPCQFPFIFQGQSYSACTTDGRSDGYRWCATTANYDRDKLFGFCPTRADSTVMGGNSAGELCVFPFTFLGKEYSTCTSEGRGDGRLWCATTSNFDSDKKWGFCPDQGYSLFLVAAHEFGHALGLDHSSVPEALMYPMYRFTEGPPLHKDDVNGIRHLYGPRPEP

MMP3 [9] = molecular target: T5, MMP3; conditions: literature; cited from earlier work
Target sequence in this assay (P08254 100-477, species assumed): as the sequence (P08254 100-477) above

MMP12 = MMP12 (Homo sapiens, UniProt P39900); conditions: literature; cited from earlier work
Chain of MMP12 (P39900 106-470, species assumed): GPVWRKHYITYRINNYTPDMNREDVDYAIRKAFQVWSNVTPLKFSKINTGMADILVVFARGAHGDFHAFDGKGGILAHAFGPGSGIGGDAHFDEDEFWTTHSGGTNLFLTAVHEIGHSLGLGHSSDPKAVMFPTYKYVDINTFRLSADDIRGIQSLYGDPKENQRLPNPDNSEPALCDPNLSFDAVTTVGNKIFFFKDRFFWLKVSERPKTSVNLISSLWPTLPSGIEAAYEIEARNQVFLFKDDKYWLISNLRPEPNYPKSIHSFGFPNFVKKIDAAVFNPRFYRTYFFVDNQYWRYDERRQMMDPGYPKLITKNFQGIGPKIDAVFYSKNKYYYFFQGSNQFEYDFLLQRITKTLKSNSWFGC

CN1C(=O)N(CC(C(=O)NO)[C@H](CC2CCCC2)C(=O)N2CCCCC2)C(=O)C1(C)C (stereo partly shown) [Ro32-3555, Ro 32-3555 (Trocade)]
Ki (MMP9 [1]): 95 nM
Ki (MMP2 [2]): 154 nM
inhibitory activity (loss of probe labeling) (MMP7 [3]): significant potency
Ki (MMP7 [4]): 42 nM
inhibitory activity (loss of probe labeling) (MMP1): significant potency

CNC(=O)[C@H](Cc1ccccc1)NC(=O)[C@H](CC(C)C)[C@H](CSc1cccs1)C(=O)NO [Batimastat]
IC50 (MMP9 [1]): 1 nM
inhibitory activity (loss of probe labeling) (MMP3 [5]): stronger inhibitory activity against MMP3 compared with Marimastat
inhibitory activity (loss of probe labeling) [6]: inhibitory activity toward every protease tested
IC50 (MMP7 [4]): 6 nM

O=C(O)CN(CCN(CC(=O)O)CC(=O)O)CC(=O)O [EDTA, Ethylenediaminetetraacetic acid]
effect on HxBP-Bt binding (MAMBI signal) (active recombinant MMPs): completely eliminated HxBP-Bt binding

O=C(O)C[C@@H](NC(=O)c1cc(-c2ccc(-c3ccncc3)cc2)cs1)c1ccccc1 [PF 356231]
IC50 (MMP2 [2]): > 100 nM
IC50 (MMP7 [4]): 96000 nM

O=P(O)(O)C(NS(=O)(=O)c1ccc(-c2ccc(Cl)cc2)cc1)P(=O)(O)O [MMP inhibitor 2, MMP Inhibitor 2 IV]
IC50 (MMP9 [1]): > 1000 nM
inhibitory activity (loss of probe labeling) (MMP2 [7]): did not prevent the binding of HxBP-Bt
inhibitory activity (loss of probe labeling) (MMP9 [8]): did not prevent the binding of HxBP-Bt

CC(C)ON([C@@H](C(=O)NO)C(C)C)S(=O)(=O)c1ccc(-c2ccccc2)cc1 [ARP 101]
inhibitory activity (loss of probe labeling) (MMP3 [5]): increased potency
inhibitory activity (loss of probe labeling) (MMP2 [7]): increased potency

COC[C@H](NC(=O)[C@H](NC(=O)[C@@H](CCCc1ccc(-c2ccccc2)c(C)c1)CC(=O)O)C(C)(C)C)c1ccccc1 [UK 370106]
IC50 (MMP3 [9]): 23 nM
IC50 (MMP9 [1]): 30400 nM
inhibitory activity (loss of probe labeling) (MMP3 [5]): expected inhibition of MMP3
IC50 (MMP12): 42 nM
IC50 (MMP7 [4]): 5800 nM

O=S(=O)(CC1CS1)c1ccc(Oc2ccccc2)cc1 (stereo not shown) [SB 3CT, SB-3CT]
inhibitory activity (loss of probe labeling) (MMP9 [8]): did not prevent the binding of HxBP-Bt

N#Cc1ccc(-c2ccc(OCCC(=O)NO)cc2)cc1 [MMP Inhib 3 VII, MMP3 Inhibitor VII]
inhibitory activity (loss of probe labeling) (MMP3 [5]): expected inhibition of MMP3

CNC(=O)[C@@H](NC(=O)[C@H](CC(C)C)[C@H](O)C(=O)NO)C(C)(C)C [Marimastat]
inhibitory activity (loss of probe labeling) [6]: inhibitory activity toward every protease tested

From US11408885B2, “Compositions and multiplex assays for characterizing active proteases and their inhibitors” (Massachusetts Institute of Technology, priority 2017, dated 2022)
